Measured values from patent US20100317575A1, “PHARMACEUTICAL COMPOSITION COMPRISING A PYRAZOLE-O-GLUCOSIDE DERIVATIVE” (BOEHRINGER INGELHEIM INTERNATIONAL GMBH, priority 2007, published 2010).

Legend:
[1] = tested on: Male Zucker Diabetic Fatty (ZDF) rats (ZDF/Crl-Lepr^fa); assay: Blood glucose AUC 0-7 h on day 20 of treatment in ZDF rats; assay type: in vivo, rat
Procedure: All experimental protocols concerning the use of laboratory animals are reviewed by a federal Ethics Committee and approved by governmental authorities. […] Control animals are dosed twice daily with vehicle alone. Blood samples are obtained by tail bleed. Blood glucose is measured with a glucometer and HbA1c is measured with an automated analyzer (Cobas Integra 400, Roche). Prior to start of treatment, the animals are randomized for blood glucose and HbA1c (n=10/group). On day 20 of treatment, blood glucose is measured in tail blood pre-dose, 0.5 h, 1.5 h, 3 h, and 7 h after dosing. Blood glucose is quantified by calculating the total glucose AUC 0-7 h. The data are presented as mean±SEM. The two-sided unpaired Student t-test is used for statistical comparison of the control group and the active groups.

[2] = tested on: Male Zucker Diabetic Fatty (ZDF) rats (ZDF/Crl-Lepr^fa); assay: HbA1c on day 37 of treatment in ZDF rats; assay type: in vivo, rat; conditions: overnight fasted
Procedure: All experimental protocols concerning the use of laboratory animals are reviewed by a federal Ethics Committee and approved by governmental authorities. Male Zucker Diabetic Fatty (ZDF) rats (ZDF/Crl-Lepr^fa) at the age of 12 weeks are treated for 5 weeks with the pyrazole-O-glucoside (16), i.e. 4-(2-fluoro-4-methoxy-benzyl)-1-isopropyl-5-methyl-3-β-D-glucopyranos-1-yloxy-1H-pyrazole, at a dose of 10 mg/kg administered twice daily in the morning and evening, or with metformin at a dose of 200 mg/kg once daily in the morning, or with the combination of the pyrazole-O-glucoside and metformin at the same dose regimens. Vehicle for administration is 0.5% aqueous hydroxyethylcellulose containing 0.015% Polysorbat 80. Control animals are dosed twice daily with vehicle alone. Blood samples are obtained by tail bleed. Blood glucose is measured with a glucometer and HbA1c is measured with an automated analyzer (Cobas Integra 400, Roche). Prior to start of treatment, the animals are randomized for blood glucose and HbA1c (n=10/group).
On day 37 of treatment, HbA1c is measured pre-dose in tail blood obtained from overnight fasted animals. The data are presented as mean±SEM.

the diabetic = conditions: metformin on its own; cited from earlier work

Compound | reduction of total glucose AUC 0-7 h versus control ([1]; 10 mg/kg twice daily) | reduction of HbA1c (numerically) versus control ([2]; 10 mg/kg twice daily) | reduction of total glucose AUC 0-7 h versus control ([1]; metformin 200 mg/kg once daily) | reduction of HbA1c (numerically) versus control ([2]; metformin 200 mg/kg once daily) | average improvement in the HbA1c value (the diabetic)
COc1ccc(Cc2c(O[C@@H]3O[C@H](CO)[C@@H](O)[C@H](O)[C@H]3O)nn(C(C)C)c2C)c(F)c1 [(16), 4-(2-fluoro-4-methoxy-benzyl)-1-isopropyl-5-methyl-3-β-D-glucopyranos-1-yloxy-1H-pyrazole] | 38% | 2.1% |  |  | 
CN(C)C(=N)N=C(N)N [Metformin, metformin] |  |  | 11% | 0.3% | 1.0-1.5%
